Experimental data reported in ChEMBL document CHEMBL3813672, “Discovery of anti-cancer activity for benzo[1,2,4]triazin-7-ones: Very strong correlation to pleurotin and thioredoxin reductase inhibition” (Bioorg Med Chem, 2016).

Key:
[1] = Cytotoxicity against human GM00637 cells assessed as reduction in cell viability after 72 hrs by MTT assay; format: cell-based; details: GM00637, 72 h
[2] = Cytotoxicity against human DU145 cells assessed as reduction in cell viability after 72 hrs by MTT assay; format: functional, cell-based; details: DU-145, 72 h
MCF7 = assay: Cytotoxicity against human MCF7 cells assessed as reduction in cell viability after 72 hrs by MTT assay; format: functional, cell-based; details: MCF7, 72 h
[3] = Inhibition of recombinant human TRX1/human placental thioredoxin reductase using DTNB as substrate in presence of NADPH by spectrophotometric method
Thioredoxin reductase = Thioredoxin reductase (Homo sapiens, UniProt Q16881+Q9NNW7+Q86VQ6); assay: Irreversible inhibition of thioredoxin reductase (unknown origin); format: protein assay

Compound | IC50 [1] | IC50 [2] | IC50 (MCF7) | IC50 [3] | Ki (Thioredoxin reductase)
COc1cc2nc(-c3ccccc3)nn(-c3ccccc3)c-2cc1=O | > 5000 nM | > 5000 nM | > 5000 nM | – | –
CCN(CC)c1cc2nc(-c3ccccc3)nn(-c3ccccc3)c-2cc1=O | 2730 nM | 3110 nM | > 5000 nM | – | –
O=c1cc2n(-c3ccccc3)nc(-c3ccccc3)nc-2cc1N1CCCC1 | 1790 nM | 2460 nM | 360 nM | – | –
O=c1cc2n(-c3ccccc3)nc(-c3ccccc3)nc-2cc1N1CCCCC1 | 1190 nM | 610 nM | 1980 nM | – | –
O=c1cc2n(-c3ccccc3)nc(-c3ccccc3)nc-2cc1N1CCOCC1 | 2290 nM | 3210 nM | 2370 nM | – | –
O=c1cc2n(-c3ccccc3)nc(-c3ccccc3)nc-2cc1N1CCSCC1 | 1630 nM | 1220 nM | 970 nM | – | –
CCNc1cc2nc(-c3ccccc3)nn(-c3ccccc3)c-2cc1=O | 240 nM | 220 nM | 1620 nM | – | –
CCOc1cc2nc(-c3ccccc3)nn(-c3ccccc3)c-2cc1=O | > 5000 nM | > 5000 nM | > 5000 nM | – | –
CC(=O)Nc1cc2nc(-c3ccccc3)nn(-c3ccccc3)c-2cc1=O | > 5000 nM | > 5000 nM | > 5000 nM | – | –
Nc1cc2nc(-c3ccccc3)nn(-c3ccccc3)c-2cc1=O | 2040 nM | 1830 nM | 950 nM | – | –
C[C@@H]1CO[C@@H]2C3=C(C(=O)C=CC3=O)[C@H]3OC(=O)[C@@H]4CC[C@H]5C1CC[C@@]25[C@@H]34 | 510 nM | 430 nM | 280 nM | 170 nM | 280 nM
CNc1cc2nc(-c3ccccc3)nn(-c3ccccc3)c-2cc1=O | 930 nM | 980 nM | 690 nM | – | –
